The nature of one data set: Plasma stability, rat. It is filed as in vitro ADME.
Data set [1] is described as follows: Microsomal stability, mouse.
The nature of data set [2]: Plasma protein binding, human. In kind it is in vitro ADME. As to conditions: plasma, read-out: Plasma Protein Binding % bound.
Data set [3] deals with T1, human D2R/β-arrestin (Homo sapiens (Human), UniProt P14416). In words: cell-based. As to conditions: cAMP Antagonist, CHO-K1 cell line expressing human D2R/β-arrestin; quinpirole used as agonist.
In data set [4] the target is T1, human D2R/β-arrestin. In words: cell-based. The note with it: β-arrestin Antagonist, CHO-K1 cell line expressing human D2R/β-arrestin; quinpirole used as agonist.
Data set [5] addresses T1, human D2R/β-arrestin. In words: β-Arrestin agonist assay (PathHunter). It is filed as cell-based. The note with it: CHO-K1 cell line expressing human D2R/β-arrestin. Summed up:
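After compound incubation, detection reagent (Buffer:Emerald II:Galactor-Star, 19:5:1) added and luminescence or fluorescence read.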

The next data set in a line: Solubility in PBS. As to conditions: aqueous buffer. It is filed as physicochemical.
A short description of data set [6]: Microsomal stability, rat. In kind it is in vitro ADME.
A short description of data set [7]: Plasma protein binding, rat. In kind it is in vitro ADME. The note with it: plasma, read-out: Plasma Protein Binding % bound.
Data set [8] addresses T1, human D2R/β-arrestin. In words: Gi/cAMP agonist assay (Lance Ultra cAMP, Forskolin). It is filed as cell-based. As to conditions: CHO-K1 cell line expressing human D2R/β-arrestin. A digest of the protocol:
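Cells were plated and incubated before compounds were pin-transferred and incubated for 10 min at 37 °C. Forskolin was then added to stimulate cAMP. cAMP was detected by Lance Ultra TR-FRET using Eu-cAMP tracer and ULight-anti-cAMP antibody.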

Data set [9] in a line: Plasma protein binding, mouse. It is filed as in vitro ADME. As to conditions: plasma, read-out: Plasma Protein Binding % bound.
The nature of another data set: Plasma stability, human. In kind it is in vitro ADME.
Data set [10] can be described thus: Microsomal stability, human. It is filed as in vitro ADME.
In another data set the target is D2 (Homo sapiens (Human), UniProt P14416). In words: D2 radioligand binding assay.
The next data set deals with Caco2. In words: Caco2 permeability. On the set-up: unit not given beside the values. In kind it is in vitro ADME. As to conditions: for Caco2 A-B: A-B direction; for Caco2 B-A: B-A direction.
In data set [11] the target is T1, human D2R/β-arrestin. The note with it: CHO-K1 cell line expressing human D2R/β-arrestin, β-arrestin and Gi/cAMP pathways, FIG. 1.

9 compounds from US10752588B2 (The Broad Institute, Inc., priority 2014, dated 2020) can be followed below.

Values after ≈ are worked out from the molar mass of the structure shown.

T1 sequence (P14416 whole entry): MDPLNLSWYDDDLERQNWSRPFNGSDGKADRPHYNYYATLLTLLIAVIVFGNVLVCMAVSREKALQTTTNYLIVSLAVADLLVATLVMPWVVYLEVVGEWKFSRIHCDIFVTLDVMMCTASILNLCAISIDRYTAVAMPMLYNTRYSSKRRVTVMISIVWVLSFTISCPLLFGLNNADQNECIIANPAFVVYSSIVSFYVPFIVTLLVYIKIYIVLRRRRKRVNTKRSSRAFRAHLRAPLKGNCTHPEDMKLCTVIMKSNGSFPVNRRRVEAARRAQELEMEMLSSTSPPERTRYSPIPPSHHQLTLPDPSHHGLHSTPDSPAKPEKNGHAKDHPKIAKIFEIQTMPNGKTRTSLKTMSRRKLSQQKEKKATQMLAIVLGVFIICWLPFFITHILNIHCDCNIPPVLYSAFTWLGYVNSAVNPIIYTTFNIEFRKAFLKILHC
D2, sequence (P14416 whole entry): as above

Consider `O=C(NC(c1ccc(Cl)cc1)c1ccccn1)C1CCN(CCCc2ccccc2)CC1` (centres unmarked) [Compound 18, N-((4-chlorophenyl)(pyridin-2-yl)methyl)-1-(3-phenylpropyl)piperidine-4-carboxamide], for which the “Plasma Stability: % remaining after 5 hours” value (from here on “Plasma Stability: % remaining”) in “Plasma stability, rat” was 93.2%; in the data set “Plasma stability, mouse” it was 90.5%; in the data set “Plasma stability, human” it was 94.9%. Moreover, the results for the “Microsomal Stability: % remaining after 60 minutes” value (“Microsomal Stability: % remaining” below) in [1], in data set [6] and in [10] were 43%, 55% and 78%, respectively. The fraction unbound in data set [2] came out at 0.046; in [7], 0.027; in [9], 0.056. In addition, the IC50 at human D2R/β-arrestin [3] is greater than 30 µM; on human D2R/β-arrestin [4], 1000 to 10000 nM. The EC50 is greater than 30 µM at human D2R/β-arrestin [5] and 100 to 1000 nM at human D2R/β-arrestin [8]. In addition, the solubility in the data set “Solubility in PBS” was determined as 352 µM (≈ 158 µg/mL).

For the compound `O=C(NC(c1ccccn1)C1CCCCC1)C1CCN(CCOc2ccccc2)CC1` (centres unmarked) [Compound 37, N-(cyclohexyl(pyridin-2-yl)methyl)-1-(2-phenoxyethyl)piperidine-4-carboxamide], the “Plasma Stability: % remaining” value is given as 100% in “Plasma stability, rat”; 98% in the data set “Plasma stability, mouse”; 100% in the data set “Plasma stability, human”. Further, the “Microsomal Stability: % remaining” value in data set [1] is reported as 31%; in data set [6] it was 28%; in data set [10] it was 71%. Also, the figures for the fraction unbound in data set [2], in data set [7] and in [9] were 0.047, 0.024 and 0.051, respectively. Besides, the IC50 fell in the range of 1 to 10 µM at human D2R/β-arrestin [3] and 100 to 1000 nM at human D2R/β-arrestin [4]. The EC50 at human D2R/β-arrestin [5] is greater than 30 µM; at human D2R/β-arrestin [8], greater than 30000 nM. The same compound yielded a solubility in the data set “Solubility in PBS” of 197 µM (≈ 83.1 µg/mL).

For the compound `O=C(NC(c1ccc(Cl)cc1)c1ccccn1)C1CCN(CCOc2ccccc2)CC1` (centres unmarked) [Compound 63, N-((4-chlorophenyl)(pyridin-2-yl)methyl)-1-(2-phenoxyethyl)piperidine-4-carboxamide], the “Microsomal Stability: % remaining” value in data set [1] turned out to be 37%; in [6] it was 55%; in data set [10], 58%. Besides, the results for the fraction unbound in data set [2] and in data set [9] were 0.037 and 0.026, respectively. Further, the IC50 at human D2R/β-arrestin [3] is greater than 30 µM; on human D2R/β-arrestin [4], 100 to 1000 nM. For the same compound, the figures for the 50% effective concentration (EC50) at human D2R/β-arrestin [5] and at human D2R/β-arrestin [8] were greater than 30 µM and 100 to 1000 nM, respectively. The same compound showed a solubility in “Solubility in PBS” of 476 µM (≈ 214 µg/mL). The “Plasma Stability: % remaining” value is reported as 93.4% in “Plasma stability, mouse” and 94.5% in “Plasma stability, human”. The same compound yielded a Ki on D2 of 100 to 1000 nM. Also, in the data set on Caco2, the “Caco2 A-B” value is 25.1. Moreover, the “Caco2 B-A” value in the data set on Caco2 stood at 19.9. The “functional profile at D2R (antagonist mode)” value on human D2R/β-arrestin [11] was “representative β-arrestin biased D2R antagonists”.

On to `O=C(NC(c1ccc(Cl)cc1)c1ccccn1)C1CCN(CCOc2ccccc2Cl)CC1` (centres unmarked) [Compound 66, 1-(2-(2-chlorophenoxy)ethyl)-N-((4-chlorophenyl)(pyridin-2-yl)methyl)piperidine-4-carboxamide], for which the “Plasma Stability: % remaining” value in the data set “Plasma stability, rat” was 88.1%; in the data set “Plasma stability, mouse”, 100%; in “Plasma stability, human” it was 99.7%. For the same compound, the “Microsomal Stability: % remaining” value in data set [1] stood at 7%; in [6] it was 35%; in data set [10], 46%. Also, the fraction unbound in data set [2] was 0.007; in data set [7], 0.006; in data set [9], 0.008. For the same compound, the IC50 at human D2R/β-arrestin [3] is less than 0.1 µM; on human D2R/β-arrestin [4] it was less than 100 nM. For the same compound, the EC50 is greater than 30 µM at human D2R/β-arrestin [5] and 10000 to 30000 nM at human D2R/β-arrestin [8]. Besides, the solubility in “Solubility in PBS” stood at 10.5 µM (≈ 5.09 µg/mL). The Ki at D2 lay in the range of 100 to 1000 nM. For the same compound, the “Caco2 A-B” value in the data set with Caco2 was found to be 15.1. Besides, in the data set with Caco2, the “Caco2 B-A” value is 2.4.

For `O=C(NC(c1ccc(Cl)cc1)c1cccnc1)C1CCN(CCOc2ccccc2)CC1` (centres unmarked) [Compound 111, N-((4-chlorophenyl)(pyridin-3-yl)methyl)-1-(2-phenoxyethyl)piperidine-4-carboxamide], the “Plasma Stability: % remaining” value in the data set “Plasma stability, rat” is listed as 98%; in “Plasma stability, mouse”, 100%; in “Plasma stability, human” it was 100%. In addition, the figures for the “Microsomal Stability: % remaining” value in data set [1], in data set [6] and in data set [10] were 39%, 51% and 60%, respectively. Also, the fraction unbound turned out to be 0.053 in [2], 0.022 in [7] and 0.027 in data set [9]. The IC50 on human D2R/β-arrestin [3] is greater than 30 µM; at human D2R/β-arrestin [4] it was 100 to 1000 nM. Also, the EC50 on human D2R/β-arrestin [5] was greater than 30 µM; at human D2R/β-arrestin [8], 100 to 1000 nM.

In the case of `O=C(NC(c1ccncc1)c1ccc(Cl)cc1)C1CCN(CCOc2ccccc2)CC1` (centres unmarked) [Compound 112, N-((4-chlorophenyl)(pyridin-4-yl)methyl)-1-(2-phenoxyethyl)piperidine-4-carboxamide], the “Plasma Stability: % remaining” value in the data set “Plasma stability, rat” came out at 95%; in the data set “Plasma stability, mouse” it was 95%; in the data set “Plasma stability, human” it was 100%. For the same compound, the “Microsomal Stability: % remaining” value in [1] was 29%; in [6], 53%; in data set [10], 52%. Further, the figures for the fraction unbound in data set [2], in data set [7] and in data set [9] were 0.064, 0.02 and 0.05, respectively. The IC50 was greater than 30 µM at human D2R/β-arrestin [3] and 1000 to 10000 nM on human D2R/β-arrestin [4]. The EC50 on human D2R/β-arrestin [5] is greater than 30 µM; on human D2R/β-arrestin [8], less than 100 nM. The amount in solution in the data set “Solubility in PBS” (solubility) came to 19 µM (≈ 8.55 µg/mL).

Take `Clc1ccc(C(NCC2CCN(CCOc3ccccc3)CC2)c2ccccn2)cc1` (centres unmarked) [Compound 114, 1-(4-chlorophenyl)-N-((1-(2-phenoxyethyl)piperidin-4-yl)methyl)-1-(pyridin-2-yl)methanamine]: the “Plasma Stability: % remaining” value in “Plasma stability, rat” was “h100, m100, r100%”; in the data set “Plasma stability, mouse”, “h100, m100, r100%”; in the data set “Plasma stability, human”, “h100, m100, r100%”. For the same compound, the “Microsomal Stability: % remaining” value in data set [1] came out at 6%; in data set [6], 20%; in data set [10], 63%. Besides, the fraction unbound in data set [2] worked out at 0.014; in data set [7] it was 0.005; in [9] it was 0.023. The IC50 was less than 0.1 µM on human D2R/β-arrestin [3] and 100 to 1000 nM on human D2R/β-arrestin [4]. The EC50 on human D2R/β-arrestin [5] is greater than 30 µM; on human D2R/β-arrestin [8] it was greater than 30000 nM. At D2, this compound had a Ki of 100 to 1000 nM.

With `O=C(NC(c1ccc(Cl)cc1)c1ccccn1)C1CCN(CCOc2ccc(F)cc2F)CC1` (centres unmarked) [Compound 115, N-((4-chlorophenyl)(pyridin-2-yl)methyl)-1-(2-(2,4-difluorophenoxy)ethyl)piperidine-4-carboxamide], the “Plasma Stability: % remaining” value in the data set “Plasma stability, rat” turned out to be 98.0%; in “Plasma stability, mouse”, 86.2%; in the data set “Plasma stability, human”, 91.2%. For the same compound, the “Microsomal Stability: % remaining” value in data set [1] worked out at 26%; in data set [6], 77%; in data set [10], 63%. In addition, the results for the fraction unbound in data set [2], in data set [7] and in [9] were 0.008, 0.005 and 0.015, respectively. Further, the IC50 is greater than 30 µM at human D2R/β-arrestin [3] and 1000 to 10000 nM on human D2R/β-arrestin [4]. Further, the EC50 at human D2R/β-arrestin [5] is greater than 30 µM; at human D2R/β-arrestin [8] it was 100 to 1000 nM. Besides, the concentration in solution in the data set “Solubility in PBS” (solubility) came to 220 µM (≈ 107 µg/mL). Also, in the data set with Caco2, the “Caco2 A-B” value is 30.4. Also, in the data set on Caco2, the “Caco2 B-A” value amounted to 11.5.

Regarding `COc1cccc(C(NC(=O)C2CCN(CCOc3ccccc3)CC2)c2ccccc2)c1` (centres unmarked) [Compound 146, N-((3-methoxyphenyl)(phenyl)methyl)-1-(2-phenoxyethyl)piperidine-4-carboxamide], the “Plasma Stability: % remaining” value was 88% in the data set “Plasma stability, rat”; 96% in the data set “Plasma stability, mouse”; 98% in “Plasma stability, human”. The “Microsomal Stability: % remaining” value in data set [1] is 36%; in [6], 27%; in [10] it was 56%. The figures for the fraction unbound in [2], in [7] and in data set [9] were 0.022, 0.021 and 0.04, respectively. For the same compound, the results for the IC50 at human D2R/β-arrestin [3] and on human D2R/β-arrestin [4] were 1 to 10 µM and 1000 to 10000 nM, respectively. Besides, the EC50 was greater than 30 µM on human D2R/β-arrestin [5] and greater than 30000 nM at human D2R/β-arrestin [8].
